How the values were obtained:
[1] = tested on: H1N1pdm09 virus (A/Netherlands/602/2009)
H1 ectodomain = details: pH 7.5

## CC[C@H](C)[C@@H]1NC(=O)[C@H](CS)NC(=O)[C@H](CO)NC(=O)[C@H](CCCNC(=N)N)NC(=O)[C@H](CCCNC(=N)N)NC(=O)[C@H](Cc2ccc(O)cc2)NC(=O)[C@H](CCC(N)=O)NC(=O)[C@H](Cc2ccccc2)NC(=O)[C@H](CC(N)=O)NC(=O)[C@H](CC(C)C)NC(=O)[C@@H]2CSC(=N2)c2cc(ccn2)C[C@@H](C(=O)NCC(N)=O)NC(=O)[C@H](CC(N)=O)NC(=O)[C@H](CC(C)C)NC(=O)[C@H]([C@@H](C)CC)NC(=O)[C@H](CC(N)=O)NC(=O)[C@H](CC(C)C)NC1=O [M3]
[1]
  Infection inhibition in single-concentration screen: clear infection inhibition
[1]; 1 h
  IC50: 0.12 µM
H1 ectodomain
  Competition with fluorescein-labelled S5 for binding to H1 protein: compete

## H-CLNFQYRRSCILNILNBG-NH2 (disulfide) [M4]
[1]
  Infection inhibition in single-concentration screen: did not show inhibition

## H-CYYFTHSIFNNLIVFHBG-NH2 (sidechain bridge or staple) [M8]
[1]
  Infection inhibition in single-concentration screen: minimal to no activity
H1 ectodomain
  Competition with fluorescein-labelled S5 for binding to H1 protein: showed competition

Source: article PMC10548512 (Chemical Science, 2023)
